Measurements reported in patent US8722901B2, “Carboxy oxazole or thiazole compounds as DGAT-1 inhibitors useful for the treatment of obesity” (Piramal Enterprises Limited, priority 2009, dated 2014).

Molecular target: T1, hDGAT-1 (Homo sapiens, UniProt O75907)
T1 construct: host or cells: Sf9 insect cells (baculovirus); microsomal fraction
T1 sequence (O75907 1-488): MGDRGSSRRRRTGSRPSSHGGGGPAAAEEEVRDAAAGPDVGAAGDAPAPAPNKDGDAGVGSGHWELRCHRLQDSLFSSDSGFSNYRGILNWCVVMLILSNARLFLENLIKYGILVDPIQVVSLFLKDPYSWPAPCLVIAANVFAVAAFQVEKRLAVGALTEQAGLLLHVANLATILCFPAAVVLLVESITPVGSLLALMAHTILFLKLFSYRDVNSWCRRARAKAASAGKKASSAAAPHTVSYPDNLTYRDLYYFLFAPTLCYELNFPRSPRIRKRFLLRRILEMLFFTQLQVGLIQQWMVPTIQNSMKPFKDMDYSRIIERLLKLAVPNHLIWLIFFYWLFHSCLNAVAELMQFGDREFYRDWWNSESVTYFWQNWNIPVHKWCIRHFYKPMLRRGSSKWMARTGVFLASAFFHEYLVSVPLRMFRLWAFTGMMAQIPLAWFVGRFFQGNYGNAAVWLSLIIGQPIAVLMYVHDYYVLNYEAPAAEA
Test: In-vitro DGAT-1 assay (14C oleoyl CoA, microsomes from Sf9 cells)
Assay type: biochemical
Settings: 1 μM compound; hDGAT-1 containing microsomes from Sf9 cells
Procedure: In-Vitro Protocol for DGAT-1 Assay
Sf9 Culture and Treatment
Sf9 cells were grown in T25 flasks containing Graces's Insect media (Invitrogen, US) with 10% FBS (Hyclone, US) with antibiotic (100 units/mL penicillin, 100 μg/mL streptomycin sulphate, 0.25 μg/mL amphotericin B as Fungizone) grown in a 27° C. incubator.
hDGAT-10RF expression clone (RZPDo839C09146 in pDEST vector) was obtained from RZPD, Germany. hDGAT-1 bacmid DNA was obtained by transformation of the hDGAT expression clone into DH10Bac E. coli competent cells. Approximately 1 μg of hDGAT-1 bacmid DNA was infected into Sf9 cells with Cellfectin (Invitrogen, US) reagent. Following infection, Sf9 cells were incubated at 27° C. for 30 minutes. Five hours after infection, the media was replaced with growth media containing antibiotic (100 units/mL penicillin, 100 μg/mL streptomycin sulphate, 0.25 μg/mL amphotericin B as Fungizone) and incubated at 27° C. for 72 hours. The supernatant containing the virus was centrifuged at 1500 g for 5 minutes, passed through 0.22 μm filter, and subsequently stored at 4° C. The virus was further amplified three more times by re-infection of Sf9 cells and the viral titer was determined by plaque assay.
Preparation of DGAT-1 Microsomes from Sf9 Cells
Sf9 cells were seeded in spinner flasks on day 0 at a cell density of 1×10^6 and infected on day 1 with hDGAT-1 baculovirus at a multiplicity of infection (MOI) of 5 and a cell density of 2×10^6. On day 3 (or 66-72 hours), cells were harvested and centrifuged at 2500 g for 10 minutes. Pellet was resuspended in lysis buffer (100 mM sucrose, 50 mM KCl, 40 mM KH2PO4, 30 mM EDTA, pH 7.2) and passed through 21-gauge needle approximately 10 times. […] The supernatant was subjected to centrifugation at 35,000 rpm in a Beckman Ti-45 rotor at 4° C. for 1 hour. The resultant pellet containing the microsomes were resuspended overnight in 1 mL of lysis buffer and total protein concentration was estimated using Bradford Reagent (Sigma, US). Microsomes were aliquoted and stored at −80° C.
Measurement of DGAT-1 Activity
Frozen aliquots of hDGAT-1 containing microsomes were thawed (5-10 mg/mL total protein) on ice and diluted to a working stock of 1 mg/mL with DGAT Assay Buffer (DAB).
The assay was performed in duplicates in a reaction volume of 100 μL. […] Procedure:
The reaction was started by the addition of […] of 1 mg/mL of microsomes (iv) to the mixture and incubated at 37° C. for 10 minutes. […] The mixture was vortexed and the triglycerides formed were extracted into the organic heptane phase.

Compound	inhibition at 1 µM	% inhibition of hDGAT-1 at 1 μM
CC(C)[C@H](NC(=O)c1ncc(-c2ccc(NC(=O)Nc3ccc4c(c3)CCC4)cc2)o1)C(=O)O [Example 56, (S)-2-(5-(4-(3-(2,3-dihydro-1H-inden-5-yl)ureido)phenyl)oxazole-2-carboxamido)-3-methylbutanoic acid]	50 to 100%	–
CC(C)C(NC(=O)c1ncc(-c2ccc(NC(=O)c3ccc(-c4ccccc4)cc3)cc2)s1)C(=O)O (centres unmarked) [Example 48, 2-(5-(4-biphenyl-4-ylcarboxamidophenyl)thiazole-2-carboxamido)-3-methylbutanoic acid]	–	++ (>50% Inhibition ≦100)
Cc1ccc(NC(=O)Nc2ccc(-c3csc(C(=O)NC(C(=O)O)C(C)C)n3)cc2)cc1C (centres unmarked) [Example 32, 2-(4-(4-(3-(3,4-Dimethylphenyl)ureido)phenyl)thiazole-2-carboxamido)-3-methylbutanoic acid]	0 to 50%	–
CC(C)C(NC(=O)c1ncc(-c2ccc(NC(=O)Nc3cccc(C(F)(F)F)c3)cc2)o1)C(=O)O (centres unmarked) [Example 2, 3-Methyl-2-(5-(4-(3-(3-(trifluoromethyl)phenyl)ureido)phenyl)oxazole-2-carboxamido)butanoic acid]	50 to 100%	–
CC(C)C(NC(=O)c1nc(-c2ccc(NC(=O)Nc3ccccc3Cl)cc2)cs1)C(=O)O (centres unmarked) [Example 24, 2-(4-(4-(3-(2-Chlorophenyl)ureido)phenyl)thiazole-2-carboxamido)-3-methylbutanoic acid]	0 to 50%	–
CC(C)C(NC(=O)c1ncc(-c2ccc(NCc3ccc(F)cc3)cc2)s1)C(=O)O (centres unmarked) [Example 91, 2-(5-(4-((4-Fluorobenzyl)amino)phenyl)thiazole-2-carboxamido)-3-methylbutanoic acid]	0 to 50%	–
CC(C)[C@H](NC(=O)c1ncc(-c2ccc(NC(=O)Nc3ccc(Cl)cc3F)cc2)s1)C(=O)O [Example 74, (S)-2-(5-(4-(3-(4-chloro-2-fluorophenyl)ureido)phenyl)thiazole-2-carboxamido)-3-methylbutanoic acid]	50 to 100%	–
CC(C)C(NC(=O)c1nc(-c2ccc(NC(=O)Nc3ccc(Cl)cc3Oc3ccccc3)cc2)cs1)C(=O)O (centres unmarked) [Example 34, 2-(4-(4-(3-(4-chloro-2-phenoxyphenyl)ureido)phenyl)thiazole-2-carboxamido)-3-methylbutanoic acid]	0 to 50%	–
CC(C)C(NC(=O)c1nc(-c2ccc(NS(=O)(=O)c3ccc(Cl)cc3Cl)cc2)cs1)C(=O)O (centres unmarked) [Example 46, 2-(4-(4-(2,4-Dichlorophenylsulfonamido)phenyl)thiazole-2-carboxamido)-3-methylbutanoic acid]	0 to 50%	–
CC(C)C(NC(=O)c1nc(-c2ccc(NC(=O)c3ccc(-c4ccccc4)cc3)cc2)cs1)C(=O)O (centres unmarked) [Example 36, 2-(4-(4-Biphenyl-4-ylcarboxamidophenyl)thiazole-2-carboxamido)-3-methylbutanoic acid]	–	+ (>0% Inhibition ≦50)
CCCCCc1ccc(C(=O)Nc2ccc(-c3cnc(C(=O)N(C)C(C(=O)O)C(C)C)s3)cc2)cc1 (centres unmarked) [Example 40, 3-Methyl-2-(N-methyl-5-(4-(4-pentylbenzamido)phenyl)thiazole-2-carboxamido)butanoic acid]	50 to 100%	–
Cc1ccc(NC(=O)Nc2ccc(-c3cnc(C(=O)NC(C(=O)O)C(C)C)o3)cc2)cc1C (centres unmarked) [Example 6, 2-(5-(4-(3-(3,4-dimethylphenyl)ureido)phenyl)oxazole-2-carboxamido)-3-methylbutanoic acid]	50 to 100%	–
CCCCCc1ccc(C(=O)Nc2ccc(-c3csc(C(=O)NC(C(=O)O)C(C)C)n3)cc2)cc1 (centres unmarked) [Example 38, 3-Methyl-2-(4-(4-(4-pentylbenzamido)phenyl)thiazole-2-carboxamido) butanoic acid]	0 to 50%	–
CC(C)[C@H](NC(=O)c1ncc(-c2ccc(NC(=O)Nc3ccc(C(F)(F)F)cc3Cl)cc2)s1)C(=O)O [Example 72, (S)-2-(5-(4-(3-(2-chloro-4-(trifluoromethyl)phenyl)ureido)phenyl)thiazole-2-carboxamido)-3-methylbutanoic acid]	50 to 100%	–
CC(C)[C@H](NC(=O)c1ncc(-c2ccc(NC(=O)Nc3ccc(Cl)cc3)cc2)o1)C(=O)O [Example 58, (S)-2-(5-(4-(3-(4-chlorophenyl)ureido)phenyl)oxazole-2-carboxamido)-3-methylbutanoic acid]	50 to 100%	–
CC(C)C(C(=O)O)N(C)C(=O)c1ncc(-c2ccc(NC(=O)c3ccc(-c4ccccc4)cc3)cc2)s1 (centres unmarked) [Example 42, 2-(5-(4-Biphenyl-4-ylcarboxamidophenyl)-N-methylthiazole-2-carboxamido)-3-methylbutanoic acid]	–	++ (>50% Inhibition ≦100)
CC(C)C(C(=O)O)N(C)C(=O)c1ncc(-c2ccc(NC(=O)c3ccc(C(C)(C)C)cc3)cc2)s1 (centres unmarked) [Example 44, 2-(5-(4-(4-tert-Butylbenzamido)phenyl)-N-methylthiazole-2-carboxamido)-3-methylbutanoic acid]	50 to 100%	–
CC(C)C(NC(=O)c1ncc(-c2ccc(NC(=O)Nc3ccc(Cl)cc3Oc3ccccc3)cc2)o1)C(=O)O (centres unmarked) [Example 8, 2-(5-(4-(3-(4-chloro-2-phenoxyphenyl)ureido)phenyl)oxazole-2-carboxamido)-3-methylbutanoic acid]	50 to 100%	–
CC(C)C(NC(=O)c1ncc(-c2ccc(N(Cc3ccccc3)Cc3ccccc3)cc2)s1)C(=O)O (centres unmarked) [Example 93, 2-(5-(4-(dibenzylamino)phenyl)thiazole-2-carboxamido)-3-methylbutanoic acid]	0 to 50%	–
CC(C)[C@H](NC(=O)c1ncc(-c2ccc(NC(=O)Nc3cccc(Cl)c3)cc2)s1)C(=O)O [Example 70, (S)-2-(5-(4-(3-(3-chlorophenyl)ureido)phenyl)thiazole-2-carboxamido)-3-methylbutanoic acid]	50 to 100%	–
CC(C)[C@H](NC(=O)c1ncc(-c2ccc(NC(=O)Nc3ccc(Cl)cc3)cc2)s1)C(=O)O [Example 68, (S)-2-(5-(4-(3-(4-chlorophenyl)ureido)phenyl)thiazole-2-carboxamido)-3-methylbutanoic acid]	50 to 100%	–
CC(C)C(NC(=O)c1nc(-c2ccc(NC(=O)c3ccc(C(C)(C)C)cc3)cc2)cs1)C(=O)O (centres unmarked) [Example 28, 2-(4-(4-(4-tert-butylbenzamido)phenyl)thiazole-2-carboxamido)-3-methylbutanoic acid]	0 to 50%	–
CC(C)[C@H](NC(=O)c1ncc(-c2ccc(NC(=O)Nc3ccc(C(F)(F)F)cc3Cl)cc2)o1)C(=O)O [Example 62, (S)-2-(5-(4-(3-(2-chloro-4-(trifluoromethyl)phenyl)ureido)phenyl)oxazole-2-carboxamido)-3-methylbutanoic acid]	50 to 100%	–
CC(C)C(NC(=O)c1ncc(-c2ccc(NC(=O)C3Cc4ccccc4C3)cc2)s1)C(=O)O (centres unmarked) [Example 52, 2-(5-(4-(2,3-dihydro-1H-indene-2-carboxamido)phenyl)thiazole-2-carboxamido)-3-methylbutanoic acid]	50 to 100%	–
CC(C)[C@H](NC(=O)c1ncc(-c2ccc(NC(=O)Nc3ccc(Cl)cc3F)cc2)o1)C(=O)O [Example 64, (S)-2-(5-(4-(3-(4-chloro-2-fluorophenyl)ureido)phenyl)oxazole-2-carboxamido)-3-methylbutanoic acid]	50 to 100%	–
CC(C)C(NC(=O)c1nc(-c2ccc(NC(=O)Nc3ccc(C(F)(F)F)cc3)cc2)cs1)C(=O)O (centres unmarked) [Example 30, 3-methyl-2-(4-(4-(3-(4-(trifluoromethyl)phenyl)ureido)phenyl)thiazole-2-carboxamido)butanoic acid]	0 to 50%	–
